Laboratory results reported in patent US10286022B2, “Medicinal composition of extract of seed of emblica officinalis and method of preparing the same” (priority 2013, dated 2019).

Assays:
Assay type in all cases: in vivo, rat
[1] = system: Triton WR 1339 induced dyslipidemia in Albino rats (Sprague Dawley strain); assay: Hypolipidemic activity in different doses, Triton WR 1339 induced dyslipidemia model (Example 19)
Protocol: Sixty male Albino rats (Sprague Dawley strain) weighing approximate 250-300 gm were selected for the study. The animals were kept in the animal house maintained at temp 24±2° C., 65% relative humidity and 12 hr light/dark cycle. The rats were acclimatized for two weeks and during this period they had access to standard pellet diet and water ad libitum. After two weeks of acclimatization, all the rats were fasted overnight before injecting Triton WR 1339 (Tyloxapol) and administration of test extracts/standard. The animals were divided into ten groups. Following treatment was given to overnight fasted rats: • Group I: Normal control (vehicle only). • Group II: Triton WR 1339 (300 mg/kg, intraperitoneal). • Group III: Triton WR 1339 (300 mg/kg, intraperitoneal) followed by amla seed extract prepare as per example 1 (10 mg/kg, per oral). • Group IV: Triton WR 1339 (300 mg/kg, intraperitoneal) followed by amla seed extract prepare as per example 1 (7.5 mg/kg, per oral). • Group V: Triton WR 1339 (300 mg/kg, intraperitoneal) followed by amla seed extract prepare as per example 1 (5 mg/kg, per oral). • Group VI: Triton WR 1339 (300 mg/kg, intraperitoneal) followed by amla seed extract prepare as per example 1 (2.5 mg/kg, per oral). • Group VII: Triton WR 1339 (300 mg/kg, intraperitoneal) followed by amla seed extract prepare as per example 1 (2 mg/kg, per oral). • Group VIII: Triton WR 1339 (300 mg/kg, intraperitoneal) followed by amla seed extract prepare as per example 1 (1 mg/kg, per oral). • Group IX: Triton WR 1339 (300 mg/kg, intraperitoneal) followed by amla seed extract prepare as per example 1 (0.5 mg/kg, per oral). • Group X: Triton WR 1339 (300 mg/kg, intraperitoneal) followed by atorvastatin (10 mg/kg. per oral).
(§1) The animals were deprived of food for next 24 hours but had free access to water ad libitum. After 24 hour of drug treatment 2 ml blood samples were collected from the retro orbital plexus. The blood was allowed to clot and then centrifuged at 3000 rpm for 10 min and the serum was carefully drawn and collected into separate tubes. The serum was analyzed for total cholesterol, triglycerides, high density lipoproteins (HDL), low density lipoproteins (LDL) and very low density lipoproteins (VLDL) levels using auto-analyzer.

[2] = system: Triton WR 1339 induced dyslipidemia in Albino rats (Sprague Dawley strain); assay: Hypolipidemic activity compared with other amla extracts, Triton WR 1339 model (Example 20)
Protocol: (§2) Forty eight male Albino rats (Sprague Dawley strain) weighing approximate 250-300 gm were selected for the study. The animals were kept in the animal house maintained at temp 24±2° C., 65% relative humidity and 12 hr light/dark cycle. The rats were acclimatized for two weeks and during this period they had access to standard pellet diet and water ad libitum. After two weeks of acclimatization, all the rats were fasted overnight before injecting Triton WR 1339 (Tyloxapol) and administration of test extracts/standard. The animals were divided into eight groups. Following treatment was given to overnight fasted rats: • Group I: Normal control (vehicle only). • Group II: Triton WR 1339 (300 mg/kg, intraperitoneal). • Group III: Triton WR 1339 (300 mg/kg, intraperitoneal) followed by amla seed extract prepared as per example 1 (2.5 mg/kg, per oral). • Group IV: Triton WR 1339 (300 mg/kg, intraperitoneal) followed by amla extract prepared as per example 3 (40 mg/kg, per oral). • Group V: Triton WR 1339 (300 mg/kg, intraperitoneal) followed by amla extract prepared as per example 4 (40 mg/kg, per oral). • Group VI: Triton WR 1339 (300 mg/kg, intraperitoneal) followed by amla extract prepared as per example 5 (40 mg/kg, per oral). • Group VII: Triton WR 1339 (300 mg/kg, intraperitoneal) followed by amla extract prepared as per example 6 (40 mg/kg, per oral). • Group VIII: Triton WR 1339 (300 mg/kg, intraperitoneal) followed by atorvastatin (10 mg/kg, per oral).
as §1

[3] = system: Triton WR 1339 induced dyslipidemia in Albino rats (Sprague Dawley strain); assay: Single dosage study compared with other amla extracts, Triton WR 1339 model (Example 21)
Protocol: as §2, with “(2.5” for “(40”
as §1

[4] = 24 h after Triton i.p. + 10 mg/kg p.o.

SMILES: CC(C)c1c(C(=O)Nc2ccccc2)c(-c2ccccc2)c(-c2ccc(F)cc2)n1CC[C@@H](O)C[C@@H](O)CC(=O)O [Atorvastatin]
- HDL After [1, 4]: 39.83 mg/dL
- LDL After [1, 4]: 60.23 mg/dL
- TC After [1, 4]: 120.83 mg/dL
- TG After [1, 4]: 103.86 mg/dL
- VLDL After [1, 4]: 20.77 mg/dL
- effect on cholesterol and triglyceride level ([1]; amla seed extract 0.5 to 10 mg/kg p.o., atorvastatin 10 mg/kg p.o.): effective in lowering the cholesterol as well as triglyceride level
- HDL Before ([1]; baseline, 10 mg/kg p.o. group): 31.66 mg/dL
- LDL Before ([1]; baseline, 10 mg/kg p.o. group): 47.75 mg/dL
- TC Before ([1]; baseline, 10 mg/kg p.o. group): 87.43 mg/dL
- TG Before ([1]; baseline, 10 mg/kg p.o. group): 39.9 mg/dL
- VLDL Before ([1]; baseline, 10 mg/kg p.o. group): 7.98 mg/dL
- HDL After [2, 4]: 33.84 mg/dL
- LDL After [2, 4]: 55.00 mg/dL
- TC After [2, 4]: 132.58 mg/dL
- TG After [2, 4]: 218.66 mg/dL
- VLDL After [2, 4]: 43.73 mg/dL
- HDL Before ([2]; baseline, 10 mg/kg p.o. group): 35.11 mg/dL
- LDL Before ([2]; baseline, 10 mg/kg p.o. group): 52.43 mg/dL
- TC Before ([2]; baseline, 10 mg/kg p.o. group): 97.33 mg/dL
- TG Before ([2]; baseline, 10 mg/kg p.o. group): 48.99 mg/dL
- VLDL Before ([2]; baseline, 10 mg/kg p.o. group): 9.79 mg/dL
- effect on cholesterol and triglyceride level ([2]; other amla extracts 40 mg/kg vs seed extract 2.5 mg/kg, atorvastatin 10 mg/kg p.o.): effective in lowering the cholesterol as well as triglyceride levels
- HDL After [3, 4]: 36.66 mg/dL
- LDL After [3, 4]: 43.67 mg/dL
- TC After [3, 4]: 122.54 mg/dL
- TG After [3, 4]: 211.06 mg/dL
- VLDL After [3, 4]: 42.21 mg/dL
- HDL Before ([3]; baseline, 10 mg/kg p.o. group): 39.51 mg/dL
- LDL Before ([3]; baseline, 10 mg/kg p.o. group): 51.00 mg/dL
- TC Before ([3]; baseline, 10 mg/kg p.o. group): 99.83 mg/dL
- TG Before ([3]; baseline, 10 mg/kg p.o. group): 46.59 mg/dL
- VLDL Before ([3]; baseline, 10 mg/kg p.o. group): 9.31 mg/dL
- effect on cholesterol and triglyceride level ([3]; extracts 2.5 mg/kg, atorvastatin 10 mg/kg p.o.): less effective when compared with the amla seed extract
